From PMC6767403, “8‐Hydroxyquinolines are bactericidal against Mycobacterium tuberculosis” (Drug Development Research, 2019) come the findings set out here.

By IC50 is commonly meant the concentration that gives 50% inhibition.

SMILES strings stand for the structures. ≈ marks a conversion by molar mass, not a printed value. Like-named read-outs stand apart in the source and are kept apart here.

The test system of data set [1] is HepG2 human liver cells. Put plainly: HepG2 cytotoxicity, CellTiter-Glo, 72 hr. The following applies: HepG2, 72 h, read-out: HepG2 IC50. Background: In ATP-based viability assays light output follows the ATP content of the culture.
Data set [2] can be described thus: Vero cell cytotoxicity, CellTiter-Glo, 2 days. It counts as cell-based. The conditions noted are these: African green monkey, 2 days exposure. How it is done: Vero cells (CCL81) were cultured in high‐glucose Dulbecco's modified Eagle medium with GlutaMax (Invitrogen), 10% v/v fetal bovine serum, 50 units/mL penicillin, and 50 μg/mL streptomycin. Cells were exposed to compounds for 2 days and viability was determined using CellTiter‐Glo (Promega).

The next data set relates to M. tuberculosis H37Rv. Nature of the data set: microbe, parasite or virus in culture. It counts as cell-based, Mycobacterium tuberculosis.
The subject of the next data set is M. tuberculosis. Nature of the data set: Kill kinetics against replicating M. tuberculosis (CFU). It counts as cell-based, Mycobacterium tuberculosis. The conditions noted are these: replicating conditions; for bactericidal activity (in words): 7H9-OADC-Tw medium, 1× to 10× MIC.
In data set [3] the test system is HepG2 human liver cells.
Setting [4] is: Mycobacterium tuberculosis, H37RV, 120 h, […], mean ± SD (n in parentheses), read-out: MIC.

Regarding `Oc1cccc2cccnc12` [Compound 1, 8‐hydroxyquinoline], the half-inhibitory concentration (IC50) in the data set on HepG2 human liver cells [1] came out at 7.6 ± 0.68 µM. Besides, 1.4 µM corresponded to half-maximal inhibition in data set [2] (Vero cells) (IC50 at 2 days). In addition, the MIC with M. tuberculosis H37Rv was 3.6 ± 0.20 (2) μM; against M. tuberculosis H37Rv (Mycobacterium tuberculosis, H37RV, 120 h), 3.6 µM (≈ 0.523 µg/mL).
As for `Cc1ccc(O)c2ncccc12` [Compound 2], the IC50 in the data set with HepG2 human liver cells [1] stood at 6.5 ± 1.7 µM. Moreover, inhibition in data set [2] (Vero cells (CCL81)) was half-maximal at 1.4 µM (IC50 at 2 days). In addition, in the data set on M. tuberculosis H37Rv (setting [4]), the MIC was 3.1 ± 1.1 µM (≈ 0.493 µg/mL).
Consider `Oc1ccc(Br)c2cccnc12` [Compound 3], for which the IC50 in the data set with HepG2 human liver cells [1] was determined as 6.9 ± 0.59 µM. For the same compound, the IC50 at 2 days in data set [2] (Vero cells (CCL81)) is 1.8 µM. The MIC with M. tuberculosis H37Rv (setting [4]) was 2.9 ± 0.4 µM (≈ 0.65 µg/mL).
For the compound `Oc1ccc(Cl)c2cccnc12` [Compound 4], the IC50 in the data set on HepG2 human liver cells [1] was 7.6 ± 1.5 µM. This compound also returned an IC50 at 2 days in data set [2] (Vero cells (CCL81)) of 2.4 µM. For the same compound, the MIC in the data set on M. tuberculosis H37Rv (setting [4]) was 3 ± 1 µM (≈ 0.539 µg/mL). Further, in the data set on M. tuberculosis, the “bactericidal activity (in words)” value is reported as “bactericidal”. In the data set with M. tuberculosis (12 μM (2.5× MIC) and higher, within 14 days), the “logs of bacteria killed” value is given as not below 3 logs.
Regarding `Oc1c(Cl)cc(Cl)c2cccnc12` [Compound 5], the concentration for half-maximal inhibition (IC50) in the data set with HepG2 human liver cells [1] came to 7.6 ± 1.2 µM. Moreover, the half-inhibitory concentration (IC50) at 2 days in data set [2] (Vero cells (CCL81)) came out at 1.3 µM. Moreover, the MIC was 8.4 µM (≈ 1.8 µg/mL) with M. tuberculosis H37Rv (setting [4]) and 8.4 ± 4.5 (6) μM in the data set with M. tuberculosis H37Rv ([…], mean ± SD (n in parentheses)).
On to `O=[N+]([O-])c1ccc(O)c2ncccc12` [Compound 6], for which the IC50 in the data set with HepG2 human liver cells [1] came to 7.7 ± 1.8 µM. In data set [2] (Vero cells (CCL81)), this compound yielded an IC50 at 2 days of 2.9 µM. In addition, the MIC in the data set on M. tuberculosis H37Rv (setting [4]) was 4.8 ± 3.3 µM (≈ 0.913 µg/mL).
On to `Oc1ccc(COC2CCCCC2)c2cccnc12` [Compound 7], for which the IC50 with HepG2 human liver cells [1] was 4.9 ± 1.9 µM. Moreover, the IC50 at 2 days in data set [2] (Vero cells (CCL81)) turned out to be 6.2 µM. The MIC with M. tuberculosis H37Rv (setting [4]) turned out to be 3.2 ± 0.85 µM (≈ 0.823 µg/mL).
For `Oc1ccc(CNc2cccc(Br)c2)c2cccnc12` [Compound 8], in the data set on HepG2 human liver cells [1], the IC50 was 12 ± 0.5 µM. The compound also came in with a 50% inhibitory concentration (IC50) at 2 days in data set [2] (Vero cells (CCL81)) of 7.5 µM. Besides, the “anti-tubercular activity (in words)” value with M. tuberculosis H37Rv is reported as “abrogated the anti‐tubercular activity”. Also, in the data set on M. tuberculosis H37Rv (setting [4]), the MIC was more than 20 µM.
The matching figures for `Oc1ccc(CN2CCN(c3ccc(F)cc3)CC2)c2cccnc12` [Compound 9]: 9.8 ± 2.2 µM, 5.8 µM, “abrogated the anti‐tubercular activity” and more than 20 µM.
As for `[O-][n+]1cccc2cccc(O)c21` [Compound 10], the “cytotoxicity against HepG2 cells (in words)” value in the data set with HepG2 human liver cells [3] is given as “significant reduction of cytotoxicity”. The IC50 in the data set with HepG2 human liver cells [1] was less than 88 µM. Besides, in data set [2] (Vero cells (CCL81)), the IC50 at 2 days was more than 20 µM. Besides, the “anti-tubercular activity (in words)” value in the data set on M. tuberculosis H37Rv was “loss of activity”. In the data set on M. tuberculosis H37Rv (setting [4]), the MIC is more than 20 µM.
With `Cc1ccc2cccc(O)c2n1` [Compound 11], the IC50 in the data set on HepG2 human liver cells [1] came out at 28 ± 9 µM. For the same compound, in data set [2] (Vero cells), the IC50 at 2 days was 12 µM. Moreover, the “anti-tubercular activity (in words)” value with M. tuberculosis H37Rv is listed as “not tolerated”. Besides, the MIC in the data set on M. tuberculosis H37Rv (setting [4]) was more than 20 µM.
Regarding `Nc1ccc2cccc(O)c2n1` [Compound 12], in the data set with HepG2 human liver cells [1], the IC50 came out at 12 ± 0.5 µM. In addition, half-maximal inhibition in data set [2] (Vero cells) (IC50 at 2 days) was put at 3.3 µM. For the same compound, the “anti-tubercular activity (in words)” value in the data set on M. tuberculosis H37Rv is recorded as “retained measurable anti‐tubercular activity”. The MIC with M. tuberculosis H37Rv (setting [4]) was determined as 4.6 ± 1.7 µM (≈ 0.737 µg/mL).
On to `CNc1ccc2cccc(O)c2n1` [Compound 13], for which the IC50 in the data set with HepG2 human liver cells [1] turned out to be 22 ± 2.8 µM. The same compound yielded an IC50 at 2 days in data set [2] (Vero cells (CCL81)) of 8.2 µM. For the same compound, in the data set with M. tuberculosis H37Rv, the “anti-tubercular activity (in words)” value is “retained measurable anti‐tubercular activity”. The MIC in the data set on M. tuberculosis H37Rv (setting [4]) came to 6.4 ± 0.35 µM (≈ 1.11 µg/mL).
As to `CN(C)c1ccc2cccc(O)c2n1` [Compound 14], in the data set with HepG2 human liver cells [1], the IC50 is more than 100 µM. In addition, in data set [2] (Vero cells (CCL81)), the concentration for half-maximal inhibition (IC50) at 2 days is more than 50 µM. Further, in the data set on M. tuberculosis H37Rv, the “anti-tubercular activity (in words)” value is “loss of activity”. Further, the MIC in the data set with M. tuberculosis H37Rv (setting [4]) was more than 20 µM.
Regarding `Oc1cccc2ccc(N3CCCCC3)nc12` [Compound 15], the 50% inhibitory concentration (IC50) in the data set on HepG2 human liver cells [1] was more than 100 µM. The same compound yielded an IC50 at 2 days in data set [2] (Vero cells (CCL81)) of more than 50 µM. Also, in the data set on M. tuberculosis H37Rv, the “anti-tubercular activity (in words)” value is “loss of activity”. Further, the MIC in the data set on M. tuberculosis H37Rv (setting [4]) was more than 20 µM.
On the same counts, the results for `Oc1cccc2ccc(Nc3ccccc3)nc12` [Compound 16] are 3.8 ± 0.45 µM, 0.94 µM, “loss of activity” and more than 20 µM.
On the same counts, the results for `CC(=O)Nc1ccc2cccc(O)c2n1` [Compound 17] are 9 ± 1 µM, 4.9 µM, “not tolerated” and more than 20 µM.
Regarding `Cc1cc(C)n(-c2ccc3cccc(O)c3n2)n1` [Compound 19], the IC50 in the data set with HepG2 human liver cells [1] amounted to 12 ± 0.5 µM. In data set [2] (Vero cells (CCL81)), this compound registered an IC50 at 2 days of 19 µM. Besides, the MIC in the data set with M. tuberculosis H37Rv (setting [4]) is more than 20 µM.
`COc1cccc(/C=C/c2ccc3cccc(O)c3n2)c1` [Compound 21]: in the data set with HepG2 human liver cells [1], the 50% inhibitory concentration (IC50) was 10 ± 1 µM. The same compound returned an IC50 at 2 days in data set [2] (Vero cells (CCL81)) of 2.9 µM. Further, the MIC in the data set with M. tuberculosis H37Rv (setting [4]) worked out at 8.7 ± 0.2 µM (≈ 2.41 µg/mL).
`COc1ccccc1/C=C/c1ccc2cccc(O)c2n1` [Compound 22]: the IC50 with HepG2 human liver cells [1] is 12 ± 2 µM. The compound also had an IC50 at 2 days in data set [2] (Vero cells (CCL81)) of 6.2 µM. In addition, the MIC in the data set on M. tuberculosis H37Rv (setting [4]) was found to be 13 ± 9.1 µM (≈ 3.61 µg/mL).
On the same counts, the results for `Oc1cccc2ccc(/C=C/c3ccc4c(c3)OCO4)nc12` [Compound 23] are 9.1 ± 3 µM, 6 µM and 15 ± 5 µM (≈ 4.37 µg/mL).
Consider `Oc1cccc2ccc(/C=C/c3cccc(F)c3)nc12` [Compound 24], for which the half-maximal inhibitory concentration (IC50) in the data set with HepG2 human liver cells [1] is 8 ± 0.6 µM. Also, in data set [2] (Vero cells (CCL81)), the IC50 at 2 days turned out to be 7.2 µM. Further, the MIC in the data set on M. tuberculosis H37Rv (setting [4]) amounted to 13 ± 6.3 µM (≈ 3.45 µg/mL). In addition, in the data set on M. tuberculosis, the “bactericidal activity (in words)” value is recorded as “bactericidal”. Also, the “log kill (sterilized the culture)” value in the data set with M. tuberculosis (27 μM (10× MIC), within 14 days) is recorded as more than 4 log. For the same compound, the “logs of bacteria killed” value in the data set on M. tuberculosis (concentrations above 14 μM (5× MIC)) is given as not below 2 logs.
Take `Oc1cccc2ccc(/C=C/c3ccccc3Cl)nc12` [Compound 25]: in the data set on HepG2 human liver cells [1], the IC50 worked out at 12 ± 1 µM. For the same compound, half-maximal inhibition in data set [2] (Vero cells (CCL81)) (IC50 at 2 days) required 9 µM. Further, in the data set with M. tuberculosis H37Rv (setting [4]), the MIC stood at 5.8 ± 2.2 µM (≈ 1.63 µg/mL).
`OCc1ccccc1CN1CCN(Cc2ccc3cccc(O)c3n2)CC1` [Compound 26]: the IC50 in the data set with HepG2 human liver cells [1] worked out at 14 ± 0.5 µM. This compound registered an IC50 at 2 days in data set [2] (Vero cells (CCL81)) of 11 µM. Also, in the data set with M. tuberculosis H37Rv, the “anti-tubercular activity (in words)” value was “not tolerated”. Besides, the MIC with M. tuberculosis H37Rv (setting [4]) is more than 20 µM.
